Among the data in patent publication US12398154B2, “Azaquinazoline pan-KRas inhibitors” (Mirati Therapeutics, Inc., priority 2020, dated 2025) are IC50 values, retold here.

For orientation: IC50 means the concentration at which inhibition is half-maximal.

Common to all, as to experiment: biochemical
Test [1] concerns the target KRas G12V (Homo sapiens, UniProt P01116, G12V).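 Also: KRas binding measured by TR-FRET displacement at room temperature, IC50 fitted from percent of control values.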
Protocol: (§1) The ability of a compound to bind to KRas was measured using a TR-FRET displacement assay. […] After a 60-minute incubation at room temperature, the reaction was measured using a BMG LABTECH CLARIO star Plus via TR-FRET. […] The POC values were fit to a 4-parameter IC50 equation and the IC50 value reported.
For test [2], the target named is KRas G12R (Homo sapiens, UniProt P01116, G12R).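 Also: TR-FRET displacement assay of compound binding to KRas, read after one hour at room temperature, potency from a four-parameter fit of percent-of-control values.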
KRas G12R, sequence (P01116 1-169 isoform P01116-2 G12R): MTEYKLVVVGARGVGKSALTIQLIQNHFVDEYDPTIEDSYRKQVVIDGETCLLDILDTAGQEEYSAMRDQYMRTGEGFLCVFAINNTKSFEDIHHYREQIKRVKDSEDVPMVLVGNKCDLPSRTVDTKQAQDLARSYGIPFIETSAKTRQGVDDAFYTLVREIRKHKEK
Protocol: as §1
Test [3] deals with KRas G12D (Homo sapiens, UniProt P01116, G12D).
KRas G12D, sequence (P01116 1-169 isoform P01116-2 G12D): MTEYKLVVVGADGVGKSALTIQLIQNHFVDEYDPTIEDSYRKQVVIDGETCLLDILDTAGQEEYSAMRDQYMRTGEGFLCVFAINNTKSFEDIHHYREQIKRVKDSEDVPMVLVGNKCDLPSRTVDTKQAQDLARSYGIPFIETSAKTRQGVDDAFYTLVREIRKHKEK
Protocol: as §1

Structures are written as SMILES.

KRas G12V, sequence (P01116 1-169 isoform P01116-2 G12V): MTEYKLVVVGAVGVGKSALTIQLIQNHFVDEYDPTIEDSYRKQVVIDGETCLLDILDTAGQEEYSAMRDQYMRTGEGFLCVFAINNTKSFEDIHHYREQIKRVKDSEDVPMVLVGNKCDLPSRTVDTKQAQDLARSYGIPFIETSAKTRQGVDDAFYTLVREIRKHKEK

Turning to `CC1(O)CCCN(c2nc(OCC34CCCN3CCC4)nc3c(F)c(-c4cccc5scnc45)ncc23)C1` (centres unmarked) [Example 68, 1-(7-(benzo[d]thiazol-4-yl)-8-fluoro-2-((hexahydro-1H-pyrrolizin-7a-yl)methoxy)pyrido[4,3-d]pyrimidin-4-yl)-3-methylpiperidin-3-ol], the results for the IC50 in test [1], in test [2] and in test [3] were 17 µM, 27.6 µM and 11.6 µM, respectively.

For the compound `Fc1c(-c2cccc3cccc(F)c23)ncc2c(N3CCCCCCC3)nc(OCC34CCCN3CCC4)nc12` [Example 41, 4-(azocan-1-yl)-8-fluoro-7-(8-fluoronaphthalen-1-yl)-2-((hexahydro-1H-pyrrolizin-7a-yl)methoxy)pyrido[4,3-d]pyrimidine], the results for the half-inhibitory concentration (IC50) in test [1], in test [2] and in test [3] were 3.41 µM, 6.39 µM and 6.48 µM, respectively.

For `CC1(O)CCCN(c2nc(OCC34CCCN3CCC4)nc3c(F)c(-c4cccc5ccccc45)ncc23)C1` (centres unmarked) [Example 69, 1-(8-fluoro-2-((hexahydro-1H-pyrrolizin-7a-yl)methoxy)-7-(naphthalen-1-yl)pyrido[4,3-d]pyrimidin-4-yl)-3-methylpiperidin-3-ol], the IC50 in test [1] was 2.73 µM; in test [2], 4.17 µM; in test [3] it was 2.09 µM.

As to `Fc1c(-c2cccc3cccc(F)c23)ncc2c(N3CCCC4CC43)nc(OCC34CCCN3CCC4)nc12` (centres unmarked) [Example 31, 4-(2-azabicyclo[4.1.0]heptan-2-yl)-8-fluoro-7-(8-fluoronaphthalen-1-yl)-2-((hexahydro-1H-pyrrolizin-7a-yl)methoxy)pyrido[4,3-d]pyrimidine], the IC50 is 13.2 µM in test [1] and 12.8 µM in test [2].

With `CCc1c(F)ccc2cc(O)cc(-c3ncc4c(NCC5(O)CCCCC5)nc(OC[C@@]56CCCN5C[C@H](F)C6)nc4c3F)c12` [Example 52, 5-ethyl-6-fluoro-4-(8-fluoro-2-(((2R,7aS)-2-fluorohexahydro-1H-pyrrolizin-7a-yl)methoxy)-4-(((1-hydroxycyclohexyl)methyl)amino)pyrido[4,3-d]pyrimidin-7-yl)naphthalen-2-ol], the IC50 in test [1] was 0.025 µM; in test [2] it was 0.039 µM; in test [3], 0.235 µM.

Regarding `NC(=O)NC1CCCN(c2nc(OCC34CCCN3CCC4)nc3c(F)c(-c4cccc5cccc(F)c45)ncc23)C1` (centres unmarked) [Example 241, 1-(1-(8-fluoro-7-(8-fluoronaphthalen-1-yl)-2-((hexahydro-1H-pyrrolizin-7a-yl)methoxy)pyrido[4,3-d]pyrimidin-4-yl)piperidin-3-yl)urea], the IC50 was 13.6 µM in test [1], 8.62 µM in test [2] and 17.2 µM in test [3].

In the case of `CCc1c(F)ccc2cc(O)cc(-c3ncc4c(N(C)Cc5cn[nH]c5)nc(OC[C@@]56CCCN5C[C@H](F)C6)nc4c3F)c12` [Example 163, 4-(4-(((1H-pyrazol-4-yl)methyl)(methyl)amino)-8-fluoro-2-(((2R,7aS)-2-fluorohexahydro-1H-pyrrolizin-7a-yl)methoxy)pyrido[4,3-d]pyrimidin-7-yl)-5-ethyl-6-fluoronaphthalen-2-ol], the IC50 in test [1] worked out at 0.014 µM; in test [2] it was 0.017 µM; in test [3], 0.095 µM.

Turning to `Fc1c(-c2cccc3cccc(F)c23)ncc2c(N3CCCOCC3)nc(OCC34CCCN3CCC4)nc12` [Example 42, 4-(8-fluoro-7-(8-fluoronaphthalen-1-yl)-2-((hexahydro-1H-pyrrolizin-7a-yl)methoxy)pyrido[4,3-d]pyrimidin-4-yl)-1,4-oxazepane], the figures for the IC50 in test [1], in test [2] and in test [3] were 1.61 µM, 3.09 µM and 1.86 µM, respectively.

For `CC1(O)CCCN(c2nc(OCC34CCCN3CCC4)nc3c(F)c(-c4cc(O)ccc4F)ncc23)C1` (centres unmarked) [Example 429, 1-(8-fluoro-7-(2-fluoro-5-hydroxyphenyl)-2-((tetrahydro-1H-pyrrolizin-7a(5H)-yl)methoxy)pyrido[4,3-d]pyrimidin-4-yl)-3-methylpiperidin-3-ol], the IC50 in test [1] came out at 4.44 µM; in test [2], 8.25 µM; in test [3], 2.46 µM.

In the case of `Fc1c(-c2cccc3cccc(F)c23)ncc2c(N3CCCC4CCCC43)nc(OCC34CCCN3CCC4)nc12` (centres unmarked) [Example 32, 8-fluoro-7-(8-fluoronaphthalen-1-yl)-2-((hexahydro-1H-pyrrolizin-7a-yl)methoxy)-4-(octahydro-1H-cyclopenta[b]pyridin-1-yl)pyrido[4,3-d]pyrimidine], the IC50 is ≥ 100 µM in test [1], 86.3 µM in test [2] and 98.6 µM in test [3].

For `NS(=O)(=O)OC1CCCN(c2nc(OCC34CCCN3CCC4)nc3c(F)c(-c4cccc5cccc(F)c45)ncc23)C1` (centres unmarked) [Example 248, 1-(8-fluoro-7-(8-fluoronaphthalen-1-yl)-2-((tetrahydro-1H-pyrrolizin-7a(5H)-yl)methoxy)pyrido[4,3-d]pyrimidin-4-yl)piperidin-3-yl sulfamate], the IC50 in test [1] worked out at 9.78 µM; in test [2], 10.5 µM; in test [3], 6.81 µM.

For `CC1(O)CCCN(c2nc(OCC34CCCN3CCC4)nc3c(F)c(-c4cc(O)cc5ccccc45)ncc23)C1` (centres unmarked) [Example 151], the IC50 is 0.008 µM in test [1], 0.009 µM in test [2] and 0.012 µM in test [3].

`CC1(C)CCCN(c2nc(OCC34CCCN3CCC4)nc3c(F)c(-c4cccc5cccc(F)c45)ncc23)C1` [Example 53, 4-(3,3-dimethylpiperidin-1-yl)-8-fluoro-7-(8-fluoronaphthalen-1-yl)-2-((hexahydro-1H-pyrrolizin-7a-yl)methoxy)pyrido[4,3-d]pyrimidine]: the figures for the IC50 in test [1], in test [2] and in test [3] were 49.4 µM, 90.2 µM and 66.4 µM, respectively.

On to `OC1CCCCN(c2nc(OCC34CCCN3CCC4)nc3c(F)c(-c4cccc5cccc(F)c45)ncc23)C1` (centres unmarked) [Example 44, 1-(8-fluoro-7-(8-fluoronaphthalen-1-yl)-2-((hexahydro-1H-pyrrolizin-7a-yl)methoxy)pyrido[4,3-d]pyrimidin-4-yl)azepan-3-ol], for which the values for the IC50 in test [1], in test [2] and in test [3] were 2.99 µM, 6.24 µM and 3.23 µM, respectively.

`CC1(O)CCCN(c2nc(OCC34CCCN3CCC4)nc3c(F)c(-c4cccc5cccnc45)ncc23)C1` (centres unmarked) [Example 66]: the figures for the IC50 in test [1], in test [2] and in test [3] were 44.5 µM, 67.8 µM and 26.9 µM, respectively.

For the compound `Cc1cc2sc(N)nc2c(-c2ncc3c(N4CCCC(C)(O)C4)nc(OCC45CCCN4CCC5)nc3c2F)c1C` (centres unmarked) [Example 40, 1-(7-(2-amino-5,6-dimethylbenzo[d]thiazol-4-yl)-8-fluoro-2-((hexahydro-1H-pyrrolizin-7a-yl)methoxy)pyrido[4,3-d]pyrimidin-4-yl)-3-methylpiperidin-3-ol], the IC50 was determined as 66.3 µM in test [1], 76.9 µM in test [2] and 55 µM in test [3].

For `OC1CN(c2nc(OCC34CCCN3CCC4)nc3c(F)c(-c4cccc5cccc(F)c45)ncc23)Cc2ccnn2C1` (centres unmarked) [Example 255, 5-(8-fluoro-7-(8-fluoronaphthalen-1-yl)-2-((hexahydro-1H-pyrrolizin-7a-yl)methoxy)pyrido[4,3-d]pyrimidin-4-yl)-5,6,7,8-tetrahydro-4H-pyrazolo[1,5-a][1,4]diazepin-7-ol], the half-maximal inhibitory concentration (IC50) turned out to be 11 µM in test [1], 15.1 µM in test [2] and 6.23 µM in test [3].

Regarding `OC1CCC2(CCCN(c3nc(OCC45CCCN4CCC5)nc4c(F)c(-c5cccc6cccc(F)c56)ncc34)C2)C1` (centres unmarked) [Example 47, 7-(8-fluoro-7-(8-fluoronaphthalen-1-yl)-2-((hexahydro-1H-pyrrolizin-7a-yl)methoxy)pyrido[4,3-d]pyrimidin-4-yl)-7-azaspiro[4.5]decan-2-ol], the half-maximal inhibitory concentration (IC50) is 70.1 µM in test [1], ≥ 100 µM in test [2] and 63.4 µM in test [3].

In the case of `Fc1c(-c2cccc3cccc(F)c23)ncc2c(N3CCCSCC3)nc(OCC34CCCN3CCC4)nc12` [Example 43, 4-(8-fluoro-7-(8-fluoronaphthalen-1-yl)-2-((hexahydro-1H-pyrrolizin-7a-yl)methoxy)pyrido[4,3-d]pyrimidin-4-yl)-1,4-thiazepane], the IC50 turned out to be 1.3 µM in test [1], 2.27 µM in test [2] and 3.78 µM in test [3].

As for `CCc1cccc2cccc(-c3ncc4c(N5CCCOCC5)nc(OCC56CCCN5CCC6)nc4c3F)c12` [Example 334, 4-(7-(8-ethylnaphthalen-1-yl)-8-fluoro-2-((hexahydro-1H-pyrrolizin-7a-yl)methoxy)pyrido[4,3-d]pyrimidin-4-yl)-1,4-oxazepane], the values for the IC50 in test [1], in test [2] and in test [3] were 0.699 µM, 0.738 µM and 1.48 µM, respectively.

For `Fc1c(-c2cccc3cccc(F)c23)ncc2c(N3CCSCC3)nc(OCC34CCCN3CCC4)nc12` [Example 50, 4-(8-fluoro-7-(8-fluoronaphthalen-1-yl)-2-((hexahydro-1H-pyrrolizin-7a-yl)methoxy)pyrido[4,3-d]pyrimidin-4-yl)thiomorpholine], the IC50 turned out to be 22.6 µM in test [1], 22.7 µM in test [2] and 39 µM in test [3].

For `OC[C@@H]1CCCN(c2nc(OCC34CCCN3CCC4)nc3c(F)c(-c4cccc5cccc(F)c45)ncc23)C1` [Example 268, (R)-(1-(8-fluoro-7-(8-fluoronaphthalen-1-yl)-2-((hexahydro-1H-pyrrolizin-7a-yl)methoxy)pyrido[4,3-d]pyrimidin-4-yl)piperidin-3-yl)methanol], the IC50 in test [1] was 6.44 µM; in test [2], 8.88 µM; in test [3], 11.3 µM.

As to `O=C1CC2(CCCN(c3nc(OCC45CCCN4CCC5)nc4c(F)c(-c5cccc6cccc(CO)c56)ncc34)C2)N1` (centres unmarked) [Example 433, 6-(8-fluoro-2-((hexahydro-1H-pyrrolizin-7a-yl)methoxy)-7-(8-(hydroxymethyl)naphthalen-1-yl)pyrido[4,3-d]pyrimidin-4-yl)-1,6-diazaspiro[3.5]nonan-2-one], the IC50 in test [1] is 10 µM; in test [2], 15.4 µM; in test [3], 8.78 µM.
